# According to article PMC7717616, “A nanobody-derived mimotope against VEGF inhibits cancer angiogenesis” (Journal of Enzyme Inhibition and Medicinal Chemistry, 2020):
# Like-named read-outs stand apart in the source and are kept apart here. Square brackets hold non-standard residues; d marks the D form. Ends that are not written are not given here. Abu = CC[C@H](N)C(=O)O
# How the values were obtained:
# [1] = tested on: HUVEC cells; assay: Tube formation assay with HUVEC cells and VEGF; type: cell-based; conditions: HUVEC on Geltrex, nanobody/peptide 1000 nM, VEGF 50 ng/ml, 4–8 h, 37 °C; control with VEGF alone formed complete tubes; Image J
# Procedure: About 50 µl of Geltrex LDEV lacking growth factor (Gibco, Invitrogen) were added to 96-well plate followed by a 30–60 min period of incubation at a temperature of 37 °C. One thousands nM of nanobody and peptide were added in two separate microtubes. Then, 50 ng/ml of VEGF were added to the tubes and incubated at a temperature of 37 °C for 1 h. Bevacizumab was as positive control. About 10^4 of HUVEC cells with DMEM culture media plus each microtube’s mixture were seeded in 96-well plates containing Geltrex. Plates were incubated for 4–8 h (temperature of 37 °C in the presence of 5% CO2). After incubation, cells were assessed according to their conditions of tube formation, and tube-like structures analysed by Image J software.
# (§1) Prism 5.0 Software (GraphPad, San Diego, CA) was used for statistical analysis. T test was performed for comparison between two groups. The statistical were considered significant when p values < .05.
# [2] = tested on: HUVEC cells; assay: MTT assay, inhibition of HUVEC proliferation; type: cell-based; conditions: for IC50: HUVEC growth; for inhibition of cell growth, 24 h / inhibition of cell growth, 48 h: 1000 nM
# Procedure: The HUVEC cell line was purchased from the Pasteur Institute of Iran and was transferred in DMEM media enriched with 10% Foetal Bovine Serum (FBS, Gibco). The cells were then added into T25 cell culture flasks and incubated at a temperature of 37 °C in the presence of 5% CO2. After 3–5 days, confluency of the cells was assessed. At 90% of confluency, cells were removed from the flask by trypsin treatment until their use in following experiments.
# About 10^4 of HUVEC cells were suspended in […] of culture media enriched with 2% FBS, and were then transferred to 96-well plates, followed by an incubation at a temperature of 37 °C for 2 h. After incubation at a temperature of 37 °C in the presence of 5% CO2, various concentrations of nanobody and peptide (0–1000 nM) were added to cells, followed by an incubation for 24 and 48 h, respectively. Bevacizumab was used as positive control. After incubation, an MTT (3–(4,5-Dimethylthiazol-2-yl)-2,5-Diphenyltetrazolium Bromide) solution was added to each well and incubated for 4 h. Thereafter, MTT was removed and DMSO (dimethylsulfoxide) was added to the wells. Plates were incubated on shaker for 30 min, and optical densities (OD) were then measured using a spectrophotometer (Epoch).
# as §1
# [3] = 0–1000 nM, 24 h, read-out: IC50 (24 h)
# [4] = 0–1000 nM, 48 h, read-out: IC50 (48 h)
Substance,tube-like structures formed [1] [%],"IC50 [2, 3] [nM]","IC50 [2, 4] [nM]","dose dependence of inhibition of cellular proliferation (in words) ([2]; HUVEC, 0–1000 nM)","inhibition of cell growth, 24 h ([2]; HUVEC, 24 h) [%]","inhibition of cell growth, 48 h ([2]; HUVEC, 48 h) [%]","time dependence of effect (in words) ([2]; HUVEC, 24 and 48 h)"
"YY[Abu]AARAWSPYSSTVDAGDFRYWGQ-NH2 [peptide, designed 25-mer peptide from the CDR3 region of the VEGF nanobody]",35,350,200,dose dependent,77,91,time dependent
Bevacizumab: Bevacizumab (positive control),20,200,150,–,87,97,–
